The values that follow come from patent US20250345394A1, “HAIR-GROWING OR HAIR-FOSTERING AGENT BASED ON KERATIN FINE PARTICLES” (MYQTECH INC., priority 2022, published 2025).

This test deals with C57BL/6 mice. Put plainly: Hair growing effect on mice (topical application to shaved dorsal region). The note with it: 1% topically every day, male C57BL/6 mice. In kind it is in vivo. As for the experimental part:
In the present example, the hair growing effect of keratin microparticles on mice was investigated. The experiment was approved by Institutional Animal Care and Use Committee, University of Tsukuba (No. 17-060), and the procedure was carried out in conformity with the “Guiding principles for the care and use of animals in the field of physiological sciences” approved by the board of Physiological Society of Japan.
Six-week-old male C57BL/6 mice (Charles River Japan Inc.) were kept individually in a cage. acclimated for 1 week, and then randomly assigned to experiment groups (each group n=5) of a 1% Minoxidil treated group, a 1% keratin treated group, a 1% keratin microparticles treated group, and a milli-Q water treated group (control group). The mice were anesthetized with Isoflurane (Wako Pure Chemical Industries, Ltd.) and then telogen hair at the dorsal region of the mice was shaved using a hair clipper to induce the growth phase. […]
In the end of treatment period, the mice were slaughtered by cervical dislocation. […] Using ImageJ processing program (National Institutes of Health, Bethesda, USA), the hair regrowth at the treated area was measured.

`Nc1cc(N2CCCCC2)nc(N)[n+]1[O-]` [Minoxidil]: the “time of hair regrowth phenotype” value was ~10 day after application.
